In article PMC10610134, “Verubulin (Azixa) Analogues with Increased Saturation: Synthesis, SAR and Encapsulation in Biocompatible Nanocontainers Based on Ca^2+ or Mg^2+ Cross-Linked Alginate” (Pharmaceuticals, 2023):

Legend:
[1] = system: microtubules in carcinoma A549 cells; assay: Immunofluorescent microscopy of microtubules; type: cell-based, human; settings: 24 h, A549
Protocol: Since verubulin is known to stimulate microtubule disassociation, we performed an immunofluorescent microscopy study to determine the response of microtubule dynamics in carcinoma A549 cells to the treatment with representative compounds 2b,c,e. […] Aberrant cell morphology—contraction and rounding (Figure 2A,B) or contraction and elongation (Figure 2C)—was also observed.
A549 cells were seeded on coverslips (treated with poly-l-lysine at a concentration of 33 mg/L for an hour). Compounds were added up to the corresponding concentration after 24 h attachment and growth of the cells. Then, cells were incubated 24 h.
The cells were fixed with methanol (precooled in liquid nitrogen for 20 min), no additional permeabilization was performed. To prevent non-specific binding, cells were incubated with 4% BSA in PBS for one hour. Then, a solution of mouse monoclonal antibodies against alpha-tubulin cross-linked with Alexa 488 fluoroform (Thermo Fisher Scientific, Waltham, MA, USA, 32-2588) at a concentration of 5 μg/mL in 1% BSA solution in PBS was added to the cells, and the slides were incubated at +5 °C in a water chamber for 24 h. After the end of the incubation time, the cells were washed several times with PBS buffer solution and fixed on a glass slide with Moviol. Next day, cells were imaged with a ZEISS LSM 900 (ZEISS Microscopy, GmbH, Germany) and images processed with ImageJ.

HCT116 cell line = assay: MTT cytotoxicity towards HCT116; type: cell-based, human; settings: HCT-116; HCT116, human colon carcinoma; read-out: IC50
[2] = system: hTERT-immortalized human fibroblasts; assay: MTT assay of nanocontainer formulations, fibroblasts; type: cell-based; settings: Fibroblast, 48 h treatment, 2c concentration in formulations = 0.1 × COO− concentration
Protocol: The MTT assay was carried out on the A549 cell line and non-tumor hTERT-immortalized human fibroblasts for 48 h (Table 2; for cell survival curves, see Supplementary Materials).
Lung adenocarcinoma A549, breast adenocarcinoma MDA-MB-231 and non-tumor fibroblasts immortalized with h-TERT cell lines were obtained from the American Type Culture Collection (Manassas, VA, USA). Cells were routinely propagated in Dulbecco’s modified Eagle’s medium (DMEM) supplemented with 10% fetal bovine serum (HyClone, Logan, UT, USA), 2 mM L-glutamine, 100 U/mL penicillin and 100 μg/mL streptomycin (PanEco, Moscow, Russia) at 37 °C, 5% CO2 in a humidified atmosphere. Cells in the logarithmic phase of growth were used in the experiments.
The cytotoxicity of compounds for human cell lines (A549, MDA-MB-231, non-tumor fibroblasts) was assessed in MTT assays. […]
Cytotoxicity was assessed in a formazan conversion assay (MTT test) after a 48 h exposure. After the completion of drug exposure, 0.5 mg/mL 3-(4,5-dimethylthiazol-2-yl)-2,5-diphenyltetrazolium bromide (MTT reagent) was added to cells for 2 h, the culture medium was removed, cells were resuspended in 100 μL DMSO and the optical densities were measured on a Multiscan FC plate spectrophotometer (Thermo Fisher Scientific, Waltham, MA, USA) at a wavelength of 571 nm. […]

[3] = system: MCF7′, A549, VA13, HEK293T cell lines; assay: MTT cytotoxicity, SAR statements over the cell line panel; type: cell-based, human
Text: The obtained series of verubulin analogues 2a–r (which also included three by-products isolated in the reactions according to Scheme 2) were initially evaluated for cytotoxicity against commonly used human breast cancer cell line MCF7′ (fast-growth subclone), human lung epithelial carcinoma cell line A549 and etiologically non-cancer immortalized lung fibroblast cell line VA13 (WI38 subline 2RA). Cytotoxicity against immortalized human embryonic kidney cell line HEK293T, characterized by a high growth rate, was also studied regarding cytotoxicity against non-cancerous fast-growth cells. A standard MTT assay was performed; verubulin (1) served as a positive reference. The data obtained are presented in Table 1 (for dose–response curves, see Supplementary Materials).
The cytotoxicity of the substances was tested using the 3-(4,5-dimethylthiazol-2-yl)2,5-diphenyl tetrazolium bromide (MTT) assay with some modifications. A total of 2500 cells per well for the MCF7′, HEK293T, A549 cell lines or 4000 cells per well for the VA-13 cell line were plated out in 135 μL of DMEM-F12 media (Gibco, Thermo Fisher Scientific, Waltham, MA, USA) in a 96-well plate and incubated in the 5% CO2 incubator for the first 20 h without treatment. Then, 15.8 μL of media–DMSO solutions of tested substances (final DMSO concentrations in the media were 0.5% or less) was added to the cells (triplicate each) and cells were treated for 64 h with 0.023 mg/L–50 mg/L (eight dilutions) of compounds 2f,n,o,r; 1.14 μg/L–2.5 mg/L (eight dilutions) of compounds 2a,b,d,g,h,k,l,p,q; 57.2 ng/L–125 μg/L (eight dilutions) of compounds 2e,i,j; 22.9 ng/L–50 μg/L (eight dilutions) of compounds 1,2c,m. Doxorubicin was used as a control substance. Then, the MTT reagent (Paneco LLC, Moscow, Russia) was added to cells up to a final concentration of 0.5 g/L (10 × stock solution in PBS was used) and incubated for 2 h at 37 °C in the incubator, under an atmosphere of 5% CO2. Then, the MTT solution was discarded, and 140 μL of DMSO (PharmaMed LLC, Moscow, Russia) was added. The plates were swayed on a shaker (120 rpm) to dissolve the formazan. The absorbance was measured using a microplate reader (VICTOR X5 Light Plate Reader, PerkinElmer, Waltham, MA, USA) at a wavelength of 555 nm (in order to measure formazan concentration). The results were used to construct dose–response graphs and to estimate IC50 values (IC50 is the concentration resulting in half of the maximal cytotoxic effect) with GraphPad Prism V, GraphPadSoftware, Inc., San Diego, CA, USA.

COc1ccc(N(C)c2nc(C)nc3c2CCCC3)cc1 [Compound 2c, N-(4-methoxyphenyl)-N,2-dimethyl-5,6,7,8-tetrahydroquinazolin-4-amine]
effect on microtubules (MTs) ([1]; 10 μM): full depolymerization of MTs | effect on microtubules ([1]; 5–10 μM): pronounced or complete disruption of microtubules | IC50 (HCT116 cell line): 0.2 ± 0.01 nM | IC50 [2]: 4.2 ± 0.3 µM | cytotoxicity, in words ([3]; MTT, 64 h): retained high cytotoxicity of the parent molecule | selectivity towards tumor cells ([3]; pair A549/VA13): no selectivity
